From publication PMC3394770, “Ipomoelin, a Jacalin-Related Lectin with a Compact Tetrameric Association and Versatile Carbohydrate Binding Properties Regulated by Its N Terminus” (PLoS ONE, 2012)
Read-outs that look alike come from different tables or passages of the source.

How the values were obtained:
IPO (Ipomoelin) = biological target: T1, IPO (Ipomoelin) (Ipomoea batatas, UniProt P93193); test: isothermal titration calorimetry, one-site fit; assay type: binding; conditions: for Kd: read-out: K A(10^3 M^-1) (converted)
T1 construct: full length (residues 1-154), His-tagged, expressed in E. coli BL21(DE3) from pTZ18UH-IPO
T1 sequence (P93193 1-154): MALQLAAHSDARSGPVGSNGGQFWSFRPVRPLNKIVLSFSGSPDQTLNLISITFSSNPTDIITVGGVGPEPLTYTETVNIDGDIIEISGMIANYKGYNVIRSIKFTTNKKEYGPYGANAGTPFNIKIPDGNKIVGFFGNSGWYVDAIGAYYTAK

ΔN10IPO = biological target: T2, ΔN10IPO (Ipomoea batatas, UniProt P93193); test: isothermal titration calorimetry, one-site fit; assay type: binding; conditions: 20 mM Tris-HCl, 150 mM NaCl pH 7.0, 25 °C; n fixed at 1.0; read-out: K A(10^3 M^-1) (converted)
T2 construct: gene IPO; N-terminal residues 1-10 removed, Histrap-purified, expressed in E. coli BL21(DE3) from pTZ18UH-ΔN10IPO
Source text: isothermal titration calorimetry, one-site fit on ΔN10IPO

[1] = biological target: the molecule itself; test: crystal structure; hanging-drop vapor diffusion at room temperature; apo IPO and co-crystals with Me-Man, Me-Glc and Me-Gal in four space groups; tetramer in the asymmetric unit or by symmetric operations; interface analysed on IPO–Me-Glc with PDBe PISA
[2] = 20 mM Tris-HCl, 150 mM NaCl pH 7.0, 25 °C, n fixed at 1.0

Molecule: CO[C@H]1O[C@H](CO)[C@H](O)[C@H](O)[C@H]1O [Me-Gal, methyl α-D-galactopyranoside]
- Kd (IPO (Ipomoelin)): 244 µM

Molecule: CO[C@H]1O[C@H](CO)[C@@H](O)[C@H](O)[C@H]1O [Me-Glc, methyl α-D-glucopyranoside]
- Kd (ΔN10IPO): 73.5 µM
- Kd (IPO (Ipomoelin); [2]): 498 µM

Molecule: OC[C@H]1OC(O)[C@@H](O)[C@@H](O)[C@@H]1O (stereo partly drawn) [Man]
- KA (IPO (Ipomoelin); [2]): 1.05×10^2

Molecule: CO[C@H]1O[C@H](CO)[C@@H](O)[C@H](O)[C@@H]1O [Me-Man, methyl α-D-mannopyranoside]
- Kd (ΔN10IPO): 26.4 µM
- Kd (IPO (Ipomoelin); [2]): 142 µM

Molecule: OC[C@H]1OC(O)[C@H](O)[C@@H](O)[C@@H]1O (stereo partly drawn) [Glc]
- KA (IPO (Ipomoelin); [2]): 0.32×10^2

Molecule: OC[C@H]1OC(O)[C@H](O)[C@@H](O)[C@H]1O (stereo partly drawn) [Gal]
- KA (IPO (Ipomoelin); [2]): 0.57×10^2

B1: Ipomoelin (IPO) (natural protein, UniProt P93193 1-154, looked up)
chain: T1 sequence (P93193 1-154)
notes: Ipomoelin (IPO), Jacalin-related lectin of sweet potato (Ipomoea batatas cv. Tainung 57); gene GenBank D89823.1, protein GenBank BAA14024.1; monomer of residues 1 to 154; recombinant IPO with a His tag is 17.3 kDa as a monomer and 69.2 kDa as a tetramer; also called wildtype IPO; native IPO; source: E. coli BL21 (DE3), purified (Histrap FF)
- stoichiometry N [1]: 4
